Laboratory results reported in PMC12073635, “Synthesis of Tricyclic and Tetracyclic Lactone Derivatives of Thieno[2,3-b]pyrazine or Thieno[2,3-b]quinoline: Preliminary Antitumor and Antiparasitic Activity Evaluation” (Molecules, 2025).

System: L. infantum MHOM/MA/67/ITMAP-263 promastigotes
Assay: Resazurin-based assay against L. infantum promastigotes
Assay type: cell-based, Leishmania infantum
Conditions: Leishmania infantum, 72 h, dose-response
Protocol: The antiparasitic activity of compounds 2c–g, 3a, 5a and 7 was evaluated at a single concentration of 20 μM, against Trypanosoma brucei (T. brucei) and Leishmania infantum (L. infantum) promastigotes. The results are shown in Table 9 together with the cytotoxicity data (CC50) in THP-1–derived macrophages cells.
L. infantum MHOM/MA/67/ITMAP-263 promastigotes forms were grown at 27 °C, in complete RPMI-1640 medium supplemented with 10% heat-inactivated Fetal Bovine Serum (FBS), 2 mM L-glutamine, 100 UI/mL penicillin/streptomycin, 20 mM HEPES. Parasites maintenance was performed in T25 non-ventilated flasks by subpassage at a concentration of 1 × 10^6/mL every 5 days on T25 non-ventilated flasks.
The compounds’ efficacy against L. infantum promastigotes was evaluated using a resazurin-based assay. Parasites were added to 100 µL of serial dilutions of compounds in supplemented complete medium at a cell density of 5 × 10^5/mL. As a quality control, a dose–response curve to the antileishmanial drug miltefosine was included in all the assays. The final volume of the assay was 200 µL/well. Each condition was carried out in duplicate. Following 72 h of incubation at the specific conditions for L. infantum, 20 µL of a 0.5 mM resazurin solution was added, and the plates were incubated for a further 4 h under the same conditions. The methodology to obtain the results was the same described in Section 3.2.2. for T. brucei.

IC50: 16 µM
SMILES: COC(=O)c1sc2nccnc2c1C#Cc1ccccn1 [Compound 2f, Methyl 7-(pyridin-2-ylethynyl)thieno[2,3-b]pyrazine-6-carboxylate]
